In PubChem BioAssay (NCI):
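Assay format: 96-well plates, 48-hour exposure. TGI: total growth inhibition.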

Legend:
Test in all cases: DTP human tumour cell line panel, 48 h
IGROV1 ovarian = system: IGROV1 ovarian
UACC-62 melanoma = system: UACC-62 melanoma
HT29 colon = system: HT29 colon
NCI-H23 lung = system: NCI-H23 lung
MDA-MB-435 = system: MDA-MB-435
OVCAR-4 ovarian = system: OVCAR-4 ovarian
MDA-N = system: MDA-N
DU-145 prostate = system: DU-145 prostate
A549 NSCLC = system: A549 NSCLC
SK-MEL-5 melanoma = system: SK-MEL-5 melanoma
OVCAR-5 ovarian = system: OVCAR-5 ovarian
HOP-92 NSCLC = system: HOP-92 NSCLC
HCC-2998 colon = system: HCC-2998 colon
SK-OV-3 ovarian = system: SK-OV-3 ovarian
OVCAR-8 ovarian = system: OVCAR-8 ovarian
U251 CNS = system: U251 CNS
ACHN renal = system: ACHN renal
SK-MEL-2 melanoma = system: SK-MEL-2 melanoma
RPMI-8226 leukemia = system: RPMI-8226 leukemia
MCF7 breast = system: MCF7 breast
SNB-75 CNS = system: SNB-75 CNS
HS 578T breast = system: HS 578T breast
HCT-116 colon = system: HCT-116 colon
NCI-H522 lung = system: NCI-H522 lung
MDA-MB-231 breast = system: MDA-MB-231 breast
SNB-19 CNS = system: SNB-19 CNS
SW-620 colon = system: SW-620 colon
NCI-H460 lung = system: NCI-H460 lung
OVCAR-3 ovarian = system: OVCAR-3 ovarian
KM12 colon = system: KM12 colon
LOX IMVI melanoma = system: LOX IMVI melanoma
SR leukemia = system: SR leukemia
COLO 205 colon = system: COLO 205 colon
RXF 393 renal = system: RXF 393 renal
SK-MEL-28 melanoma = system: SK-MEL-28 melanoma
UACC-257 melanoma = system: UACC-257 melanoma
K-562 leukemia = system: K-562 leukemia
HCT-15 colon = system: HCT-15 colon
NCI-H226 lung = system: NCI-H226 lung
HL-60(TB) leukemia = system: HL-60(TB) leukemia
MALME-3M melanoma = system: MALME-3M melanoma
PC-3 prostate = system: PC-3 prostate
A498 renal = system: A498 renal
T-47D breast = system: T-47D breast
786-0 renal = system: 786-0 renal
SN12C renal = system: SN12C renal
MOLT-4 leukemia = system: MOLT-4 leukemia
NCI/ADR-RES ovarian = system: NCI/ADR-RES ovarian
CCRF-CEM leukemia = system: CCRF-CEM leukemia
SF-539 CNS = system: SF-539 CNS
CAKI-1 renal = system: CAKI-1 renal
SF-268 CNS = system: SF-268 CNS
HOP-62 NSCLC = system: HOP-62 NSCLC
M14 melanoma = system: M14 melanoma
BT-549 breast = system: BT-549 breast
UO-31 renal = system: UO-31 renal
TK-10 renal = system: TK-10 renal
SF-295 CNS = system: SF-295 CNS
EKVX NSCLC = system: EKVX NSCLC

With `C=CCc1cccc2cc(C(=O)Nc3ccccc3)c(=N)oc12` the TGI (IGROV1 ovarian) was greater than 100 µM, the TGI (UACC-62 melanoma) was greater than 100 µM and the TGI (HT29 colon) was greater than 100 µM. For the same molecule, the TGI (NCI-H23 lung) was greater than 100 µM, the TGI (MDA-MB-435) was greater than 100 µM and the TGI (OVCAR-4 ovarian) was 74.9 µM. It also gave a TGI (MDA-N) greater than 100 µM, a TGI (DU-145 prostate) greater than 100 µM and a TGI (A549 NSCLC) greater than 100 µM. The TGI (SK-MEL-5 melanoma) was greater than 100 µM, the TGI (OVCAR-5 ovarian) was greater than 100 µM and the TGI (HOP-92 NSCLC) was greater than 100 µM. It also gave a TGI (HCC-2998 colon) of 18.4 µM, a TGI (SK-OV-3 ovarian) greater than 100 µM and a TGI (OVCAR-8 ovarian) greater than 100 µM. For the same molecule, the TGI (U251 CNS) was greater than 100 µM, the TGI (ACHN renal) was greater than 100 µM and the TGI (SK-MEL-2 melanoma) was 38.5 µM. It also gave a TGI (RPMI-8226 leukemia) greater than 100 µM, a TGI (MCF7 breast) greater than 100 µM and a TGI (SNB-75 CNS) greater than 100 µM. It also gave a TGI (HS 578T breast) greater than 100 µM, a TGI (HCT-116 colon) greater than 100 µM and a TGI (NCI-H522 lung) greater than 100 µM. For the same molecule, the TGI (MDA-MB-231 breast) was greater than 100 µM, the TGI (SNB-19 CNS) was greater than 100 µM and the TGI (SW-620 colon) was greater than 100 µM. The TGI (NCI-H460 lung) was greater than 100 µM, the TGI (OVCAR-3 ovarian) was greater than 100 µM and the TGI (KM12 colon) was greater than 100 µM. The TGI (LOX IMVI melanoma) was greater than 100 µM, the TGI (SR leukemia) was greater than 100 µM and the TGI (COLO 205 colon) was greater than 100 µM. The TGI (RXF 393 renal) was greater than 100 µM, the TGI (SK-MEL-28 melanoma) was greater than 100 µM and the TGI (UACC-257 melanoma) was greater than 100 µM. For the same molecule, the TGI (K-562 leukemia) was greater than 100 µM, the TGI (HCT-15 colon) was greater than 100 µM and the TGI (NCI-H226 lung) was greater than 100 µM. For the same molecule, the TGI (HL-60(TB) leukemia) was greater than 100 µM, the TGI (MALME-3M melanoma) was 58.7 µM and the TGI (PC-3 prostate) was greater than 100 µM. It also gave a TGI (A498 renal) of 50.3 µM, a TGI (T-47D breast) of 85.7 µM and a TGI (786-0 renal) greater than 100 µM. For the same molecule, the TGI (SN12C renal) was greater than 100 µM, the TGI (MOLT-4 leukemia) was greater than 100 µM and the TGI (NCI/ADR-RES ovarian) was greater than 100 µM. For the same molecule, the TGI (CCRF-CEM leukemia) was greater than 100 µM, the TGI (SF-539 CNS) was greater than 100 µM and the TGI (CAKI-1 renal) was greater than 100 µM. It also gave a TGI (SF-268 CNS) greater than 100 µM, a TGI (HOP-62 NSCLC) greater than 100 µM and a TGI (M14 melanoma) greater than 100 µM. The TGI (BT-549 breast) was greater than 100 µM.

With `CC(=O)Oc1ccc(-c2cc3ccccc3oc2=O)cc1` the TGI (HT29 colon) was greater than 100 µM, the TGI (NCI-H23 lung) was greater than 100 µM and the TGI (MDA-MB-435) was greater than 100 µM. It also gave a TGI (OVCAR-4 ovarian) greater than 100 µM, a TGI (MDA-N) greater than 100 µM and a TGI (UO-31 renal) greater than 100 µM. For the same molecule, the TGI (DU-145 prostate) was greater than 100 µM, the TGI (A549 NSCLC) was greater than 100 µM and the TGI (OVCAR-5 ovarian) was greater than 100 µM. For the same molecule, the TGI (HOP-92 NSCLC) was greater than 100 µM, the TGI (HCC-2998 colon) was greater than 100 µM and the TGI (OVCAR-8 ovarian) was greater than 100 µM. For the same molecule, the TGI (U251 CNS) was greater than 100 µM, the TGI (ACHN renal) was greater than 100 µM and the TGI (SK-MEL-2 melanoma) was greater than 100 µM. For the same molecule, the TGI (RPMI-8226 leukemia) was greater than 100 µM, the TGI (MCF7 breast) was greater than 100 µM and the TGI (SNB-75 CNS) was greater than 100 µM. The TGI (HS 578T breast) was greater than 100 µM, the TGI (HCT-116 colon) was greater than 100 µM and the TGI (NCI-H522 lung) was greater than 100 µM. The TGI (MDA-MB-231 breast) was greater than 100 µM, the TGI (SNB-19 CNS) was greater than 100 µM and the TGI (SW-620 colon) was greater than 100 µM. It also gave a TGI (NCI-H460 lung) greater than 100 µM, a TGI (TK-10 renal) greater than 100 µM and a TGI (SF-295 CNS) greater than 100 µM. It also gave a TGI (OVCAR-3 ovarian) of 70.9 µM, a TGI (KM12 colon) of 39.9 µM and a TGI (LOX IMVI melanoma) greater than 100 µM. For the same molecule, the TGI (SR leukemia) was greater than 100 µM, the TGI (COLO 205 colon) was greater than 100 µM and the TGI (SK-MEL-28 melanoma) was greater than 100 µM. The TGI (UACC-257 melanoma) was greater than 100 µM, the TGI (K-562 leukemia) was greater than 100 µM and the TGI (HCT-15 colon) was greater than 100 µM. It also gave a TGI (NCI-H226 lung) greater than 100 µM, a TGI (HL-60(TB) leukemia) greater than 100 µM and a TGI (MALME-3M melanoma) greater than 100 µM. For the same molecule, the TGI (PC-3 prostate) was greater than 100 µM, the TGI (A498 renal) was greater than 100 µM and the TGI (EKVX NSCLC) was greater than 100 µM. The TGI (T-47D breast) was greater than 100 µM, the TGI (786-0 renal) was greater than 100 µM and the TGI (SN12C renal) was greater than 100 µM. The TGI (MOLT-4 leukemia) was greater than 100 µM, the TGI (NCI/ADR-RES ovarian) was greater than 100 µM and the TGI (CCRF-CEM leukemia) was greater than 100 µM. For the same molecule, the TGI (SF-539 CNS) was greater than 100 µM, the TGI (SF-268 CNS) was greater than 100 µM and the TGI (HOP-62 NSCLC) was greater than 100 µM. It also gave a TGI (M14 melanoma) greater than 100 µM and a TGI (BT-549 breast) greater than 100 µM.
